Laboratory results taken from patent publication US20090081174A1 (priority 2005, published 2009).

Test system: Phytophthora infestans, strain resistant to phenylalanine
Settings: listed phosphite salt(s) alone at 750 ppm equivalent phosphorous acid, potato plants, scale 100 to 0

With `O=[PH]([O-])[O-].[Cu+2]` [CuHPO3, copper (II) salt of phosphorous acid] the “Activity (y)” value was 12.
